Data set [1] has as its system Protein cereblon/GTPase KRas (Homo sapiens), P01116+Q96SW2 [G12D]. The experiment in a line: PROTAC activity at CRBN/KRAS G12D mutant in human ASPC1 cells assessed as induction of KRAS G12D mutant degradation at 5 nM measured after 24 hrs by immunoblot analysis relative to control. Format: cell-based. On the technique in general: In western blotting, separated proteins are transferred to a membrane and probed.

For data set [2] the test system is unchanged. The experiment in a line: PROTAC activity at CRBN/KRAS G12D mutant in human ASPC1 cells assessed as induction of KRAS G12D mutant degradation at 50 nM measured after 24 hrs by immunoblot analysis relative to control. Format: cell-based.
The test system is the same in data set [3]. The experiment in a line: PROTAC activity at CRBN/KRAS G12D mutant in human ASPC1 cells assessed as induction of KRAS G12D mutant degradation at 5 uM measured after 24 hrs by immunoblot analysis relative to control. Type of data set: cell-based.
The test system is the same in data set [4]. The data set is described as follows: PROTAC activity at CRBN/KRAS G12D mutant in human ASPC1 cells assessed as induction of KRAS G12D mutant degradation at 100 nM measured after 24 hrs by immunoblot analysis relative to control. Type of data set: cell-based.
Data set [5] shares this test system. The data set is described as follows: PROTAC activity at CRBN/KRAS G12D mutant in human ASPC1 cells assessed as induction of KRAS G12D mutant degradation at 1 uM measured after 24 hrs by immunoblot analysis relative to control. Type of data set: cell-based.
A further data set relates to ASPC1. The experiment in a line: Antiproliferative activity against human ASPC1 cells harbouring KRAS G12D mutant assessed as inhibition of cell growth measured after 72 hrs by Cell titer glo method. Format: functional, cell-based. Particulars: ASPC1, 72 h. In general terms: Cellular ATP, detected with luciferase, serves as a proxy for viable cell number.
Data set [6] is described as follows: Antiproliferative activity against human PK-59 cells harbouring KRAS G12D mutant assessed as inhibition of cell growth measured after 72 hrs by Cell titer glo method. Format: functional, cell-based. The settings on record: PK-59, 72 h.
A short description of data set [7]: Inhibition of ERK phosphorylation in human AGS cells harbouring KRAS G12D mutant measured after 24 hrs. Format: cell-based.
The nature of data set [8]: Antitumor activity against human PK-59 cells xenografted in female Balb/c nude mouse model assessed as tumor growth inhibition at 1.81 mg/kg, iv QW measured after 28 days relative to control. Format: functional. Particulars: PK-59, 672 h, time 28 day, read-out: TGI. (In general: A xenograft is tissue or cells of one species grown in another, often human tumour cells in immunodeficient mice.)

The nature of data set [9]: Inhibition of ERK phosphorylation in human PK-59 cells harbouring KRAS G12D mutant measured after 24 hrs. The settings on record: PK-59, 24 h. Format: cell-based.
Data set [10] can be described thus: Inhibition of ERK phosphorylation in human GP2d cells harbouring KRAS G12D mutant measured after 24 hrs. Type of data set: cell-based.
Data set [11] in a line: Toxicity in female Balb/c nude mouse xenografted with human PK-59 cells assessed as change in body weight at 1.8 mg/kg, iv QW measured after 28 days. Particulars: in vivo, 672 h, time 28 day. Type of data set: organism-based.
Data set [12] is described as follows: Inhibition of ERK phosphorylation in human ASPC1 cells harbouring KRAS G12D mutant measured after 24 hrs. Type of data set: cell-based. Particulars: ASPC1, 24 h.
In another data set the test system is AGS. The experiment in a line: Antiproliferative activity against human AGS cells harbouring KRAS G12D mutant assessed as inhibition of cell growth measured after 72 hrs by Cell titer glo method. Format: functional, cell-based.
The nature of data set [13]: Antiproliferative activity against human GP2d cells harbouring KRAS G12D mutant assessed as inhibition of cell growth measured after 72 hrs by Cell titer glo method. Type of data set: functional, cell-based.
Data set [14] can be described thus: Inhibition of Raf (unknown origin)/GTP loaded KRas G12D mutant interaction preincubated for 15 mins followed by anti-tag1-eu3 and Tag2-XL665 antibody addition and measured for 120 mins by HTRF method. The arrangement: species or system Homo sapiens.
In a further data set the target is GTPase KRas (Homo sapiens, UniProt P01116, G12D). The data set is described as follows: Binding affinity to 6 His-tagged GDP-loaded human KRAS G12D mutant assessed as GDP-GTP exchange preincubated for 30 mins followed by GTP addition for 30 mins by HTRF method.
A further data set concerns GP2d. The data set is described as follows: PROTAC activity at CRBN/KRAS G12D mutant in human GP2d cells assessed as induction of KRAS G12D mutant degradation at 0.004 to 250 nM measured after 24 hrs by immunoblot analysis. Type of data set: cell-based. Particulars: dose 0.004-250 nM.
Data set [15] relates to Protein cereblon/GTPase KRas (Homo sapiens), P01116+Q96SW2 [G12D]. The experiment in a line: PROTAC activity at CRBN/KRAS G12D mutant in human ASPC1 cells assessed as induction of KRAS G12D mutant degradation at 15 nM measured after 24 hrs by immunoblot analysis relative to control. Type of data set: cell-based.

The source made the active and inactive calls. No cut-off for these calls is given here.

The values that follow come from ChEMBL document CHEMBL6177994 (J Med Chem, 2025).

Sequence of Protein cereblon/GTPase KRas (Homo sapiens), P01116+Q96SW2 [G12D] (P01116 whole entry G12D): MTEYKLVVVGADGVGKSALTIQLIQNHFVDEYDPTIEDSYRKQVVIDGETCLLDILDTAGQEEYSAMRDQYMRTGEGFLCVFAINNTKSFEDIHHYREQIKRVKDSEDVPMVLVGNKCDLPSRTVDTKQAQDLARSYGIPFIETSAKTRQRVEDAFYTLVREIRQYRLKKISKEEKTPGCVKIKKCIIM
Sequence of Protein cereblon/GTPase KRas (Homo sapiens), P01116+Q96SW2 [G12D] (Q96SW2 whole entry partner): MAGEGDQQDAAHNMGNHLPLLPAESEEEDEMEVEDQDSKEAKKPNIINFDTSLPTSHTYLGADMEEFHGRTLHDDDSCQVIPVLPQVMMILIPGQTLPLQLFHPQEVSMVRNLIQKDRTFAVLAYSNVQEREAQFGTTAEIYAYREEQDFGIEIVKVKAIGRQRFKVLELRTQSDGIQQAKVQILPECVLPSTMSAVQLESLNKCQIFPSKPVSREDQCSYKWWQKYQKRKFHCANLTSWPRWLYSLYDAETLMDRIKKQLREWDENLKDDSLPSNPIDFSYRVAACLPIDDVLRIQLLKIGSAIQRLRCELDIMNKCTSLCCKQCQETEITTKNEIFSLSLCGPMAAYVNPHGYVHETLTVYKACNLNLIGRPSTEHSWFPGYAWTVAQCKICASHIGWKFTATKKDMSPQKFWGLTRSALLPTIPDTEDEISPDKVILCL
Sequence of GTPase KRas (P01116 whole entry G12D): as the sequence (P01116 whole entry G12D) above

With `C#Cc1c(F)ccc2cc(O)cc(-c3ncc4c(N5CC6CCC(C5)N6)nc(OCC5(CN6CCC7(CC6)CC(N6CCN(c8ccc(N9CCC(=O)NC9=O)cc8)CC6)C7)CC5)nc4c3F)c12`, the results for the Activity in data set [1] and in [2] were 6% and 2%, respectively.

With `C#Cc1c(F)ccc2cc(O)cc(-c3ncc4c(N5CC6CCC(C5)N6)nc(OCCCN5CCN(CC(=O)N6CCN(c7ccc8c(c7)C(=O)N(C7CCC(=O)NC7=O)C8=O)CC6)CC5)nc4c3F)c12` (stereo not given), the Activity in data set [3] is 9%; in data set [4] it was -1%; in [2], 1%; in [5], 4%.

As to `C#Cc1c(F)ccc2cc(O)cc(-c3ncc4c(N5CC6CCC(C5)N6)nc(OCC5(CN6CCC7(CC6)CC(N6CCC(c8ccc(C9CCC(=O)NC9=O)cc8)CC6)C7)CC5)nc4c3F)c12` (stereo not given), the Activity came to 32% in data set [1] and 81% in [2].

As to `C#Cc1c(F)ccc2cc(O)cc(-c3ncc4c(N5CC6CCC(C5)N6)nc(OCC5(CN6CCC7(CC6)CC(N6CCN(c8ccc(NC9CCC(=O)NC9=O)cc8F)CC6)C7)CC5)nc4c3F)c12` (stereo not given), the Activity is 54% in [1] and 64% in data set [2].

Regarding `C#Cc1c(F)ccc2cc(O)cc(-c3ncc4c(N5CC6CCC(C5)N6)nc(OC[C@@]56CCCN5C[C@H](F)C6)nc4c3F)c12` [MRTX-1133], the IC50 in the data set with ASPC1 came out at 56.8 nM; in data set [6] it was 2.9 nM; in data set [7], 24.7 nM; in data set [9], 4.2 nM; in [10], 0.87 nM; in [12] it was 20.3 nM. Besides, the IC50 in the data set with AGS stood at 2.43 nM; in data set [13], 0.91 nM; in data set [14], 1.43 nM. The inhibition in vivo at 1.81 mg/kg in [8] was found to be 58.7%. Besides, the Activity result in [11] is “Non-toxic”.

As for `C#Cc1c(F)ccc2cc(O)cc(-c3ncc4c(N5CC6CCC(C5)N6)nc(OCC5(CN6CCC7(CC6)CC(N6CCN(c8cccc9c8C(=O)N(C8CCC(=O)NC8=O)C9=O)CC6)C7)CC5)nc4c3F)c12` (stereo not given), the Activity in data set [1] stood at 21%; in data set [2] it was 34%.

On to `C#Cc1c(F)ccc2cc(O)cc(-c3ncc4c(N5CC6CCC(C5)N6)nc(OCC5(CN6CCN(c7ccc8c(c7)C(=O)N(C7CCC(=O)NC7=O)C8=O)CC6)CC5)nc4c3F)c12` (stereo not given), for which the Activity in [4] was 58%.

For `C#Cc1c(F)ccc2cc(O)cc(-c3ncc4c(N5CC6CCC(C5)N6)nc(OCC5(CN6CCC7(CC6)CC(N6CCN(c8ccc(NC9%10CC(C9)C(=O)NC%10=O)cc8F)CC6)C7)CC5)nc4c3F)c12`, the values for the Activity in data set [1] and in data set [2] were 68% and 67%, respectively.

On to `C#Cc1c(F)ccc2cc(O)cc(-c3ncc4c(N5CC6CCC(C5)N6)nc(OCC5(CN6CCC7(CC6)CC(N6CCN(c8cc9c(cc8F)c(N8CCC(=O)N(C)C8=O)nn9C)CC6)C7)CC5)nc4c3F)c12`, for which the IC50 on GTPase KRas amounted to 4.02 nM. Moreover, the outcome with GP2d was inactive.

Take `C#Cc1c(F)ccc2cc(O)cc(-c3ncc4c(N5CC6CCC(C5)N6)nc(OCCCN5CCN(CC(=O)N6CCN(c7cccc8c7C(=O)N(C7CCC(=O)NC7=O)C8=O)CC6)CC5)nc4c3F)c12` (stereo not given): the Activity in data set [3] was determined as 7%; in [4], 0%; in [2] it was 2%; in data set [5] it was 7%.

On to `C#Cc1c(F)ccc2cc(O)cc(-c3ncc4c(N5CC6CCC(C5)N6)nc(OCCCN5CCN(C(=O)CN6CCN(c7ccc8c(c7)C(=O)N(C7CCC(=O)NC7=O)C8=O)CC6)CC5)nc4c3F)c12` (stereo not given), for which the Activity in [3] is 23%; in data set [4], 10%; in data set [2], 9%; in [5] it was 21%.

Turning to `C#Cc1c(F)ccc2cc(O)cc(-c3ncc4c(N5CC6CCC(C5)N6)nc(OCC5(CN6CCC7(CC6)CC(N6CCN(c8ccc9c(c8)C(=O)N(C8CCC(=O)NC8=O)C9=O)CC6)C7)CC5)nc4c3F)c12` (stereo not given), the figures for the Activity in data set [1] and in data set [2] were 48% and 64%, respectively.

In the case of `C#Cc1c(F)ccc2cc(O)cc(-c3ncc4c(N5CC6CCC(C5)N6)nc(OCC5(CN6CCC7(CC6)CC(N6CCC(c8cccc(C9CCC(=O)NC9=O)c8)CC6)C7)CC5)nc4c3F)c12` (stereo not given), the results for the Activity in [1] and in [2] were -8% and -20%, respectively.

`C#Cc1c(F)ccc2cc(O)cc(-c3ncc4c(N5CC6CCC(C5)N6)nc(OCC5(CN6CCN(C(=O)CN7CCN(c8ccc9c(c8)C(=O)N(C8CCC(=O)NC8=O)C9=O)CC7)CC6)CC5)nc4c3F)c12` (stereo not given): in [4], the Activity came out at 40%.

As to `C#Cc1c(F)ccc2cc(O)cc(-c3ncc4c(N5CC6CCC(C5)N6)nc(OCC5(CN6CCC7(CC6)CC(N6CCC(c8ccc(NC9CCC(=O)NC9=O)cc8F)CC6)C7)CC5)nc4c3F)c12` (stereo not given), the Activity in data set [1] came out at 84%; in data set [2], 79%.

On to `C#Cc1c(F)ccc2cc(O)cc(-c3ncc4c(N5CC6CCC(C5)N6)nc(OCCCN5CCN(C(=O)CN6CCN(c7cccc8c7C(=O)N(C7CCC(=O)NC7=O)C8=O)CC6)CC5)nc4c3F)c12` (stereo not given), for which the Activity in data set [3] amounted to 7%; in [4], 8%; in data set [2], 12%; in [5] it was 0%.

For `C#Cc1c(F)ccc2cc(O)cc(-c3ncc4c(N5CC6CCC(C5)N6)nc(OCC5(CN6CCC7(CC6)CCN(c6ccc8c(c6)C(=O)N(C6CCC(=O)NC6=O)C8=O)CC7)CC5)nc4c3F)c12` (stereo not given), the figures for the Activity in [15] and in [2] were 32% and 57%, respectively.

As to `C#Cc1c(F)ccc2cc(O)cc(-c3ncc4c(N5CC6CCC(C5)N6)nc(OCC5(CN6CCC7(CC6)CC(N6CCC(c8cccc(N9CCC(=O)NC9=O)c8)CC6)C7)CC5)nc4c3F)c12`, the Activity in [1] is 0%; in data set [2] it was -10%.

Take `C#Cc1c(F)ccc2cc(O)cc(-c3ncc4c(N5CC6CCC(C5)N6)nc(OCC5(CN6CCC7(CC6)CC(N6CCC(c8cccc9c8C(=O)N(C8CCC(=O)NC8=O)C9=O)CC6)C7)CC5)nc4c3F)c12` (stereo not given): the Activity in [1] is -3%; in data set [2], -12%.

As to `C#Cc1c(F)ccc2cc(O)cc(-c3ncc4c(N5CC6CCC(C5)N6)nc(OCC5(CN6CCC7(CC6)CC(N6CCC(c8ccc9c(c8)C(=O)N(C8CCC(=O)NC8=O)C9=O)CC6)C7)CC5)nc4c3F)c12` (stereo not given), the Activity in [1] was determined as 37%; in data set [2], 59%.

One may read the IC50 as the concentration that inhibits the measured activity by half.
